This is an account of results in patent US20080139558A1, “QUINOLONES USEFUL AS INDUCIBLE NITRIC OXIDE SYNTHASE INHIBITORS” (KALYPSYS, INC., priority 2006, published 2008).

The target of this assay is T1, human iNOS (Homo sapiens, UniProt P35228).
T1 construct: expressed in transfected cells; host or cells: HEK293
The assay is described as follows: DAN assay of nitric oxide production (hiNOS). It is filed as cell-based. The conditions noted are these: enzyme expressed in HEK293 cells transiently transfected with human iNOS. An excerpt:
The source of nitric oxide synthase (NOS) enzyme can be generated in several ways including induction of endogenous iNOS using cytokines and/or lipopolysaccharide (LPS) in various cell types known in the art. Alternatively, the gene encoding the enzyme can be cloned and the enzyme can be generated in cells via heterologous expression from a transient or stable expression plasmid with suitable features for protein expression as are known in the art. Enzymatic activity (nitric oxide production) is calcium independent for iNOS, while the constitutive NOS isoforms, nNOS and eNOS, become active with the addition of various cofactors added to cellular media or extract as are well known in the art. Enzymes specified in Table 1 were expressed in HEK293 cells transiently transfected with human iNOS.
A major metabolic pathway for nitric oxide is to nitrate and nitrite, which are stable metabolites within tissue culture, tissue, plasma, and urine (S Moncada, A Higgs, N Eng J Med 329, 2002 (1993)).
The level of nitrate or nitrite in the specimen can be quantified by any method known in the art which provides adequate sensitivity and reproducibility. A variety of protocols have also been described for detecting and quantifying nitrite and nitrate levels in biological fluids by ion chromatography (e.g., A Everett et al., J. Chromatogr. 706, 437 (1995); J M Monaghan et al., J. Chromatogr. 770, 143 (1997)), high-performance liquid chromatography (e.g., M Kelm et al., Cardiovasc. Res. 41, 765 (1999)), and capillary electrophoresis (MA Friedberg et al., J. Chromatogr. 781, 491 (1997)). For example, 2,3-diaminonaphthalene reacts with the nitrosonium cation that forms spontaneously from NO to form the fluorescent product 1H-naphthotriazole. Using 2,3-diaminonaphthalene (“DAN”), researchers have developed a rapid, quantitative fluorometric assay that can detect from 10 nM to 10 μM nitrite and is compatible with a multi-well microplate format. […] DAN reacts with nitrite ion and gives fluorescent naphthotriazole (MC Carré et al., Analusis 27, 835-838 (1999)). Table 1 provides the test results of various compounds of the subject invention using the DAN assay.
A specimen can be processed prior to determination of nitrate or nitrite as required by the quantification method, or in order to improve the results, or for the convenience of the investigator. For example, processing can involve centrifuging, filtering, or homogenizing the sample. If the sample is whole blood, the blood can be centrifuged to remove cells and the nitrate or nitrite assay performed on the plasma or serum fraction. If the sample is tissue, the tissue can be dispersed or homogenized by any method known in the art prior to determination of nitrate or nitrite. It may be preferable to remove cells and other debris by centrifugation or another method and to determine the nitrate or nitrite level using only the fluid portion of the sample, or the extracellular fluid fraction of the sample. The sample can also be preserved for later determination, for example by freezing of urine or plasma samples. When appropriate, additives may be introduced into the specimen to preserve or improve its characteristics for use in the nitrate or nitrite assay.
The “level” of nitrate, nitrite, or other NO-related product usually refers to the concentration (in moles per liter, micromoles per liter, or other suitable units) of nitrate or nitrite in the specimen, or in the fluid portion of the specimen. However, other units of measure can also be used to express the level of nitrate or nitrite. For example, an absolute amount (in micrograms, milligrams, nanomoles, moles, or other suitable units) can be used, particularly if the amount refers back to a constant amount (e.g., grams, kilograms, milliliters, liters, or other suitable units) of the specimens under consideration. A number of commercially available kits can be used. […]

T1 sequence (P35228 whole entry): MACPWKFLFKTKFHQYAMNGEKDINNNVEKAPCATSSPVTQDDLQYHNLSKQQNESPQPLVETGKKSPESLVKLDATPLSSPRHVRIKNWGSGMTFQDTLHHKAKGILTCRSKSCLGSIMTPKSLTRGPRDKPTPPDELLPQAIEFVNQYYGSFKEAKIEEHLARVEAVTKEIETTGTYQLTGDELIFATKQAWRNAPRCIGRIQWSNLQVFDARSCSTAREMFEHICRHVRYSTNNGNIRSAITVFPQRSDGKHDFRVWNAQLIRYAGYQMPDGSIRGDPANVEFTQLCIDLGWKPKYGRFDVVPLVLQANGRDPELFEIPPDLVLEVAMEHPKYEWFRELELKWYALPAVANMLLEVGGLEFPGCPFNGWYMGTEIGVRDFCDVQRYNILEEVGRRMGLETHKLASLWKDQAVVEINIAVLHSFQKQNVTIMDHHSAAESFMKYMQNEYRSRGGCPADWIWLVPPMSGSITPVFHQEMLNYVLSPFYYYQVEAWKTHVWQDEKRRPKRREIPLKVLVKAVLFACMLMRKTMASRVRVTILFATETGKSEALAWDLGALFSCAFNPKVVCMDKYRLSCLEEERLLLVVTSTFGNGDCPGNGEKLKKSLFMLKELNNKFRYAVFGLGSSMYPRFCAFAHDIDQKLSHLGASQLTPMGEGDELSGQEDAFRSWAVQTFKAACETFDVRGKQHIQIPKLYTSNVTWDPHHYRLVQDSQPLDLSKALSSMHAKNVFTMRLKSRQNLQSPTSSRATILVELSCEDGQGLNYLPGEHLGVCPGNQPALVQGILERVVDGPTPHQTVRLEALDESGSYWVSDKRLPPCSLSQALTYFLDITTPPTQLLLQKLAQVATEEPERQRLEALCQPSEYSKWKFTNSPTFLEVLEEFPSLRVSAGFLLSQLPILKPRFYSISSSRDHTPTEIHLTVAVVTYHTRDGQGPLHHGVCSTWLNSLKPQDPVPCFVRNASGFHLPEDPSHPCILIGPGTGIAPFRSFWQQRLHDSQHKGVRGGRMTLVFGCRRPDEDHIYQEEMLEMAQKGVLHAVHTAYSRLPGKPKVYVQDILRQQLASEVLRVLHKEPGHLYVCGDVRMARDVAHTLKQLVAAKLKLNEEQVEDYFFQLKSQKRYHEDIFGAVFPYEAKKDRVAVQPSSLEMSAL

Compound `Cc1ncsc1-c1nc2ccccc2n1Cc1cc(=O)[nH]c2ccccc12` [Example 124, 4-((2-(4-Methylthiazol-5-yl)-1H-benzo[d]imidazol-1-yl)methyl)quinolin-2(1H)-one] yielded an EC50 of at most 5 µM.

For the compound `Cc1nc(C)c(S(=O)(=O)N(Cc2cc(=O)[nH]c3c(F)c(F)ccc23)c2cccc(Cl)c2)s1` [Example 189, N-(3-Chlorophenyl)-N-((7,8-difluoro-2-oxo-1,2-dihydroquinolin-4-yl)methyl)-2,4-dimethylthiazole-5-sulfonamide], the EC50 is at most 5 µM.

In turn, `Cc1cccc2c(CN(C(=O)c3ccco3)c3ccccc3)cc(=O)[nH]c12` [Example 16, N-((8-Methyl-2-oxo-1,2-dihydroquinolin-4-yl)methyl)-N-phenylfuran-2-carboxamide] gave an EC50 of at most 5 µM.

On to `O=C(c1ccoc1)N(Cc1cc(=O)[nH]c2ccccc12)c1ccccc1` [Example 26, N-((2-Oxo-1,2-dihydroquinolin-4-yl)methyl)-N-phenylfuran-3-carboxamide], for which the EC50 is over 5 µM.

Turning to `CCC(=O)N(Cc1cc(=O)[nH]c2ccccc12)c1ccccc1` [Example 4, N-((2-Oxo-1,2-dihydroquinolin-4-yl)methyl)-N-phenylpropionamide], the EC50 was over 5 µM.

Turning to `Cc1ncsc1C(=O)N(Cc1c(F)c(=O)[nH]c2c(F)cccc12)c1cccc(Cl)c1` [Example 108, N-(3-Chlorophenyl)-N-((3,8-difluoro-2-oxo-1,2-dihydroquinolin-4-yl)methyl)-4-methylthiazole-5-carboxamide], the EC50 is at most 5 µM.

The compound `Cc1ncsc1C(=O)N(c1cccc(Cl)c1)C(F)c1cc(=O)[nH]c2c(F)cccc12` (stereo not drawn) [Example 253, N-(3-Chlorophenyl)-N-(fluoro(8-fluoro-2-oxo-1,2-dihydroquinolin-4-yl)methyl)-4-methylthiazole-5-carboxamide] had an EC50 of at most 5 µM.

Compound `CN(C)Cc1nc2ccccc2n1Cc1cc(=O)[nH]c2c(F)c(F)ccc12` [Example 198, 4-((2-((Dimethylamino)methyl)-1H-benzo[d]imidazol-1-yl)methyl)-7,8-difluoroquinolin-2(1H)-one] registered an EC50 of over 5 µM.

On to `O=C(c1cncs1)N(Cc1cc(=O)[nH]c2ccccc12)c1ccccc1` [Example 27, N-((2-Oxo-1,2-dihydroquinolin-4-yl)methyl)-N-phenylthiazole-5-carboxamide], for which the EC50 was over 5 µM.

`COc1ccc2[nH]c(=O)cc(CN(C(=O)c3ccco3)c3ccccc3)c2c1` [Example 19, N-((6-Methoxy-2-oxo-1,2-dihydroquinolin-4-yl)methyl)-N-phenylfuran-2-carboxamide] gave an EC50 of at most 5 µM.

`O=c1cc(Cn2c(-c3cccnc3)nc3ccccc32)c2ccccc2[nH]1` [Example 125, 4-((2-(Pyridin-3-yl)-1H-benzo[d]imidazol-1-yl)methyl)quinolin-2(1H)-one] yielded an EC50 of over 5 µM.

Compound `Cc1nc(N2CCOCC2)sc1C(=O)N(Cc1cc(=O)[nH]c2ccccc12)c1ccccc1` [Example 101, 4-Methyl-2-morpholino-N-((2-oxo-1,2-dihydroquinolin-4-yl)methyl)-N-phenylthiazole-5-carboxamide] returned an EC50 of at most 5 µM.

Regarding `O=c1cc(Cn2c(CC3CCCC3)nc3ccccc32)c2ccc(F)c(F)c2[nH]1` [Example 215, 4-((2-(Cyclopentylmethyl)-1H-benzo[d]imidazol-1-yl)methyl)-7,8-difluoroquinolin-2(1H)-one], the EC50 was at most 5 µM.

`CSc1nc2ccccc2n1Cc1cc(=O)[nH]c2c(F)c(F)ccc12` [Example 192, 7,8-Difluoro-4-((2-(methylthio)-1H-benzo[d]imidazol-1-yl)methyl)quinolin-2(1H)-one] gave an EC50 of at most 5 µM.

`O=c1cc(Cn2c(-c3ccncc3F)nc3ccccc32)c2ccc(F)c(F)c2[nH]1` [Example 244, 7,8-Difluoro-4-((2-(3-fluoropyridin-4-yl)-1H-benzo[d]imidazol-1-yl)methyl)quinolin-2(1H)-one]: the EC50 was at most 5 µM.

For `Cc1ncsc1C(=O)N(Cc1cc(=O)[nH]c2c(F)c(F)ccc12)c1cccnc1` [Example 263, N-((7,8-Difluoro-2-oxo-1,2-dihydroquinolin-4-yl)methyl)-4-methyl-N-(pyridin-3-yl)thiazole-5-carboxamide], the EC50 is at most 5 µM.

In the case of `Cc1ncsc1C(=O)N(Cc1cc(=O)[nH]c2c(F)c(F)ccc12)c1ccc(F)cc1` [Example 183, N-(4-Fluorolphenyl)-N-((7,8-fluoro-2-oxo-1,2-dihydroquinolin-4-yl)methyl)-4-methylthiazole-5-carboxamide], the EC50 is at most 5 µM.

As to `Cc1ccncc1C(=O)N(Cc1cc(=O)[nH]c2c(F)cccc12)c1cccc(Cl)c1` [Example 72, N-(3-Chlorophenyl)-N-((8-fluoro-2-oxo-1,2-dihydroquinolin-4-yl)methyl)-4-methylnicotinamide], the EC50 is over 5 µM.

Turning to `Cc1ncsc1C(=O)N(Cc1cc(=O)[nH]c2c(F)c(F)ccc12)c1ccc(N2CCCCC2)cc1` [Example 170, N-((7,8-Difluoro-2-oxo-1,2-dihydroquinolin-4-yl)methyl)-4-methyl-N-(4-(piperidin-1-yl)phenyl)thiazole-5-carboxamide], the EC50 was over 5 µM.

With `CC(C)c1nn(Cc2cc(=O)[nH]c3c(F)c(F)ccc23)c2ccccc12` [Example 239, 7,8-Difluoro-4-((3-isopropyl-1H-indazol-1-yl)methyl)quinolin-2(1H)-one], the EC50 is over 5 µM.

Turning to `O=c1cc(Cn2c(C3CCCC3)nc3ccccc32)c2ccc(F)c(F)c2[nH]1` [Example 209, 4-((2-Cyclopentyl-1H-benzo[d]imidazol-1-yl)methyl)-7,8-difluoroquinolin-2(1H)-one], the EC50 is at most 5 µM.

On to `COc1ccccc1C(=O)N(Cc1cc(=O)[nH]c2c(F)cccc12)c1cccc(Cl)c1` [Example 60, N-(3-Chlorophenyl)-N-((8-fluoro-2-oxo-1,2-dihydroquinolin-4-yl)methyl)-2-methoxybenzamide], for which the EC50 was over 5 µM.

On to `Cc1ncsc1C(=O)N(Cc1cc(=O)[nH]c2ccccc12)c1ccc(F)c(Cl)c1` [Example 39, N-(3-Chloro-4-fluorophenyl)-4-methyl-N-((2-oxo-1,2-dihydroquinolin-4-yl)methyl)thiazole-5-carboxamide], for which the EC50 is over 5 µM.

The compound `Cc1ncsc1C(=O)N(Cc1cc(=O)[nH]c2c(F)c(F)ccc12)c1cc(F)cc(Cl)c1` [Example 89] returned a half-maximal effective concentration (EC50) of at most 5 µM.

The compound `CC(C)c1ncc(-c2ccccc2)n1Cc1cc(=O)[nH]c2c(F)c(F)ccc12` [Example 255, 7,8-Difluoro-4-((2-isopropyl-5-phenyl-1H-imidazol-1-yl)methyl)quinolin-2(1H)-one] displayed an EC50 of over 5 µM.

Turning to `CC=C(C)c1nc2ccccc2n1Cc1cc(=O)[nH]c2c(F)c(F)ccc12` (single isomer, unassigned) [Example 210, (E or Z)-4-((2-(But-2-en-2-yl)-1H-benzo[d]imidazol-1-yl)methyl)-7,8-difluoroquinolin-2(1H)-one], the EC50 is at most 5 µM.

The compound `O=c1cc(Cn2c(-c3ccc(F)cc3)nc3ccccc32)c2ccc(F)c(F)c2[nH]1` [Example 197, 7,8-Difluoro-4-((2-(4-fluorophenyl)-1H-benzo[d]imidazol-1-yl)methyl)quinolin-2(1H)-one] gave an EC50 of over 5 µM.

The EC50 is the concentration needed to bring the measured effect to its halfway point.
